According to ChEMBL document CHEMBL1201862, “PubChem BioAssay data set” (2004):
The source made the active and inactive calls.

How the values were obtained:
[1] = target: T1, Low molecular weight phosphotyrosine protein phosphatase (Homo sapiens, UniProt P24666); assay type: functional; conditions: read-out: IC50_Mean;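 also: Dose-response confirmation assay measuring inhibition of LMPTP enzyme activity by fluorescence intensity read-out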
T1 sequence (P24666 whole entry): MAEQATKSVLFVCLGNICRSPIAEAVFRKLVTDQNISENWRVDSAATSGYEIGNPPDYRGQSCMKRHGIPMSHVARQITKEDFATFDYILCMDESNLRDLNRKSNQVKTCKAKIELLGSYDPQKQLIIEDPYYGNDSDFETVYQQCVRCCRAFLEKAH

Vero [2] = assay: cells; assay type: functional, cell-based; conditions: Chlorocebus sabaeus
[3] = target: Peroxisome proliferator-activated receptor gamma/Nuclear receptor coactivator 1 (Homo sapiens, UniProt P37231); assay: TR-FRET dose response biochemical High Throughput Screening assay for agonists of the steroid receptor coactivator 1 (SRC-1) recruitment by the peroxisome proliferator-activated receptor gamma (PPAR gamma): non-selective agonists. [Related pubchem assays (depositor defined):AID1300, AID1808, AID504735, AID631]; assay type: protein assay
Chain of Peroxisome proliferator-activated receptor gamma/Nuclear receptor coactivator 1 (P37231 whole entry): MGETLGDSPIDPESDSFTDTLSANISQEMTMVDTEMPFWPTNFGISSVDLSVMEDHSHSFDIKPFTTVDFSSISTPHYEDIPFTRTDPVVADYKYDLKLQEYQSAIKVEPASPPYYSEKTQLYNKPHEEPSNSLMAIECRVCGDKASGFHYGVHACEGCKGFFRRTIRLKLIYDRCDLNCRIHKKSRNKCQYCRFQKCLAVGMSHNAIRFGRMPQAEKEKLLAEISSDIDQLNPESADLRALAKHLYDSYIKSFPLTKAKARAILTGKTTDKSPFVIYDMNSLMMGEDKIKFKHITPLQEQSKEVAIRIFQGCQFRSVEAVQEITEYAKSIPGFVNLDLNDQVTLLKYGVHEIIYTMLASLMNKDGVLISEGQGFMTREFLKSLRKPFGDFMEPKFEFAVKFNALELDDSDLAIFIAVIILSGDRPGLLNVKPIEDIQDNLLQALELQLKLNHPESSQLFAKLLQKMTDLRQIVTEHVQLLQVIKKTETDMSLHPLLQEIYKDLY
Chain of Peroxisome proliferator-activated receptor gamma/Nuclear receptor coactivator 1 (Q15788 whole entry, further chain): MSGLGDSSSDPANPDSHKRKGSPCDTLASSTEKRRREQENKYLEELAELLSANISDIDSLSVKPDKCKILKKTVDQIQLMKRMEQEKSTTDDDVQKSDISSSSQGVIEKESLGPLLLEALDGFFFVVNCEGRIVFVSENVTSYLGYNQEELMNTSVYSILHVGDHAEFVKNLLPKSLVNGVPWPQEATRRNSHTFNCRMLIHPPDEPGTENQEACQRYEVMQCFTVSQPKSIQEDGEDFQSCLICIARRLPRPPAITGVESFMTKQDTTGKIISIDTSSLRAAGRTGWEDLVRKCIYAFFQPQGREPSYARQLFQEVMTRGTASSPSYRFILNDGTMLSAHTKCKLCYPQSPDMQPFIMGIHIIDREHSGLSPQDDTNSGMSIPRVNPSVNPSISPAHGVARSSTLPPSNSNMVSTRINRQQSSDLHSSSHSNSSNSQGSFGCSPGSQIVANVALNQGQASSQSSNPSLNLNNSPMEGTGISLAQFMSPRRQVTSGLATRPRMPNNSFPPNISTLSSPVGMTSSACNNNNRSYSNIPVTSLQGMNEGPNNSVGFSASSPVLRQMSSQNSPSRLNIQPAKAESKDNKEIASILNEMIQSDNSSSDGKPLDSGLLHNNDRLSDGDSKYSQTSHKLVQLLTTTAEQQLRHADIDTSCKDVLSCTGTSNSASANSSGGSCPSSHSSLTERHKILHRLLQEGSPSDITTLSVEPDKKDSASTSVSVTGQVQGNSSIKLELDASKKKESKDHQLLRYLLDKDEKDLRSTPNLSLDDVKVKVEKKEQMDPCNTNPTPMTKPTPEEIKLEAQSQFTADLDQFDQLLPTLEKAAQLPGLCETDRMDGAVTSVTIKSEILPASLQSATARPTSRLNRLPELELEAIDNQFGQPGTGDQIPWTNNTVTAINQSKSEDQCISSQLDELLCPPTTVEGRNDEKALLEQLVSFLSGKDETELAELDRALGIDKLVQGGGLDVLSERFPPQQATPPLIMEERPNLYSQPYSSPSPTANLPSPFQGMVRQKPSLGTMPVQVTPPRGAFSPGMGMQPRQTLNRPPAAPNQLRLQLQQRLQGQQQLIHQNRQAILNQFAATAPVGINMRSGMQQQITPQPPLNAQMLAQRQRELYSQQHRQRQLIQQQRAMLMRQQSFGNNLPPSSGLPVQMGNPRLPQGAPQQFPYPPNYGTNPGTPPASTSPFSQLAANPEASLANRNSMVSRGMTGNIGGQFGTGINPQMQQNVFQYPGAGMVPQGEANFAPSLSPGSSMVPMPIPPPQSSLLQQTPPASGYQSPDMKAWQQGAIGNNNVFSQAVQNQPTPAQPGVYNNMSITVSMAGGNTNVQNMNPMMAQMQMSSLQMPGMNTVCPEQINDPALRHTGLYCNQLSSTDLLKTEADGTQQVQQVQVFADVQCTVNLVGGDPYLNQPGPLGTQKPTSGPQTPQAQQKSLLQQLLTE

[4] = target: Peroxisome proliferator-activated receptor gamma/Nuclear receptor coactivator 2 (Homo sapiens, UniProt P37231); assay: TR-FRET dose response biochemical High Throughput Screening assay for agonists of the steroid receptor coactivator 2 (SRC-2) recruitment by the peroxisome proliferator-activated receptor gamma (PPAR gamma): non-selective agonists. [Related pubchem assays: 1297, 1032 ]; assay type: functional
[5] = target: Peroxisome proliferator-activated receptor gamma/Nuclear receptor coactivator 3 (Homo sapiens, UniProt P37231); assay: TR-FRET dose response biochemical High Throughput Screening assay for agonists of the steroid receptor coactivator 3 (SRC-3) recruitment by the peroxisome proliferator-activated receptor gamma (PPAR gamma): non-selective agonists. [Related pubchem assays: 1301 (Confirmation screen.), 1048 (Primary screen.)]; assay type: functional
Chain of Peroxisome proliferator-activated receptor gamma/Nuclear receptor coactivator 3 (P37231 whole entry): as the sequence (P37231 whole entry) above
Chain of Peroxisome proliferator-activated receptor gamma/Nuclear receptor coactivator 3 (Q9Y6Q9 whole entry, further chain): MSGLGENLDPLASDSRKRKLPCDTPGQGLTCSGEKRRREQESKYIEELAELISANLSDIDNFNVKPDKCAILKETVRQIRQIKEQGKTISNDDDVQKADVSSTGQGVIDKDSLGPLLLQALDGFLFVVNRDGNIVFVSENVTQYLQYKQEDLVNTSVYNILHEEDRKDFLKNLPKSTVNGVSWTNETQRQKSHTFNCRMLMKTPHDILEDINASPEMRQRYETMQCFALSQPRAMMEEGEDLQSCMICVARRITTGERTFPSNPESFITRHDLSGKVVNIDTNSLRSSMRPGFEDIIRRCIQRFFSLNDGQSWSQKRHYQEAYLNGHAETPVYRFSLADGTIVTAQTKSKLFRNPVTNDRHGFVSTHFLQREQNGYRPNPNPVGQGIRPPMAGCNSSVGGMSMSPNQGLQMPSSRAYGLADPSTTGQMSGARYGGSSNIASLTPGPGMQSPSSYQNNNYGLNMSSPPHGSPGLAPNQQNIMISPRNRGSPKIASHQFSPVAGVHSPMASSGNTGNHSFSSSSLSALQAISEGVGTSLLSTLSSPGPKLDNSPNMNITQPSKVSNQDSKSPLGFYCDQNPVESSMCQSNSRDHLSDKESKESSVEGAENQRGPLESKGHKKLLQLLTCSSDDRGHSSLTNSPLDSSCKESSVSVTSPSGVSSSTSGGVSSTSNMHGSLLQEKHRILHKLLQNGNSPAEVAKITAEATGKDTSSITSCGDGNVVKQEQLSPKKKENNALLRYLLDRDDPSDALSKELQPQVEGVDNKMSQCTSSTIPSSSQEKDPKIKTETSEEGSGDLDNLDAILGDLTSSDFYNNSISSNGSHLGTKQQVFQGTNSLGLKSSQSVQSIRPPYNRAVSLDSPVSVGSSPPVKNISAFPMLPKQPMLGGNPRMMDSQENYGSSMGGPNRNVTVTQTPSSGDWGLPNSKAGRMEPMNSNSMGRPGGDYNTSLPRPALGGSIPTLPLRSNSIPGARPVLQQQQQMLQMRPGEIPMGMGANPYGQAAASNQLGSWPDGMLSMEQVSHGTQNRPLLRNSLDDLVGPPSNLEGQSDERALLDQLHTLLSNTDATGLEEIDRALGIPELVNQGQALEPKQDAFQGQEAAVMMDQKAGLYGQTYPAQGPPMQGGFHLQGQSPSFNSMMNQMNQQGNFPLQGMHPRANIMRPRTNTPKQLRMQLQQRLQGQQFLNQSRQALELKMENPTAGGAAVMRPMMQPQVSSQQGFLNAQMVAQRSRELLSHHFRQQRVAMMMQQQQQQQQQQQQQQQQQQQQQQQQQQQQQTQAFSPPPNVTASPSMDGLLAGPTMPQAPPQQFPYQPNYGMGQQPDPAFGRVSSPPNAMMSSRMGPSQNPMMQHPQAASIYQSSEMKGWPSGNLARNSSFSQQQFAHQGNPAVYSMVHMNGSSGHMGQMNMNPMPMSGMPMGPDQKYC

Escherichia coli = assay: microbe, parasite or virus in culture
[6] = target: T2, High affinity choline transporter 1 (Homo sapiens, UniProt Q9GZV3); assay: CHT inhibitors, dose response, cell-based, 5-point CRC, membrane potential dye (AID 504840); assay type: functional
T2 sequence (Q9GZV3 whole entry): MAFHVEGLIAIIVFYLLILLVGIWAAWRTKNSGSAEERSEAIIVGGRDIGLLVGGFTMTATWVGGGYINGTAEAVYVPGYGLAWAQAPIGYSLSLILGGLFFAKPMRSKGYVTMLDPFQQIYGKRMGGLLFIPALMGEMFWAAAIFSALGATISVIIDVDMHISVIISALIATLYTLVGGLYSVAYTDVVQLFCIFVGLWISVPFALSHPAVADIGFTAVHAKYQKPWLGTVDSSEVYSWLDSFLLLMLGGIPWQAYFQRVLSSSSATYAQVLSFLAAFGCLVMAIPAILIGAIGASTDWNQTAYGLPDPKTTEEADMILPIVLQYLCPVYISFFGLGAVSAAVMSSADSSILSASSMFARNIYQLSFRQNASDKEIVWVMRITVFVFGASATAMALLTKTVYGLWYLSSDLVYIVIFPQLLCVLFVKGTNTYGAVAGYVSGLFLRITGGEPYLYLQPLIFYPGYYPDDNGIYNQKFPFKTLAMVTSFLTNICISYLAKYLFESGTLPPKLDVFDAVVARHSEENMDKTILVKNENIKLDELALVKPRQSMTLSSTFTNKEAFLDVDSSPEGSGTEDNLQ

[7] = target: T3, Mitochondrial peptide methionine sulfoxide reductase (Bos taurus, UniProt P54149); assay: Absorbance-based biochemical high throughput dose response assay for activators of Methionine sulfoxide reductase A (MsrA).; assay type: functional
T3 sequence (P54149 whole entry): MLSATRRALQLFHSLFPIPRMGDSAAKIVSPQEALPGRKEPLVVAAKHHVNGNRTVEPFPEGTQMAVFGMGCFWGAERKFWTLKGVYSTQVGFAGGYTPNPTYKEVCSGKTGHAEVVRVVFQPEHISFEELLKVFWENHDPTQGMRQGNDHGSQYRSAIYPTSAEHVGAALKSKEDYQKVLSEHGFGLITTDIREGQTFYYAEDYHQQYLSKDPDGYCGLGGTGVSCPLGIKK

Vero [8] = assay: cells; assay type: functional; conditions: Chlorocebus sabaeus
[9] = target: Dual specificity tyrosine-phosphorylation-regulated kinase 1A (Rattus norvegicus, UniProt Q63470); assay type: biochemical, Homo sapiens
[10] = Luminescence Cell-Based Dose Response HTS to Identify Activators of Luciferase Translation or Activity in H4 […] Cells. [Related pubchem assays: 1829 (Project Summary), 1814 (Primary HTS)]; assay type: functional
[11] = target: T4, Endoribonuclease toxin MazF (Escherichia coli K-12, UniProt P0AE70); assay: fluorescent RNA oligo signal without MazF, dose response, counter-screen for MazEF activator project, biochemical, fluorescence, single-stranded RNase substrate (AID 588502); assay type: functional
T4 sequence (P0AE70 whole entry): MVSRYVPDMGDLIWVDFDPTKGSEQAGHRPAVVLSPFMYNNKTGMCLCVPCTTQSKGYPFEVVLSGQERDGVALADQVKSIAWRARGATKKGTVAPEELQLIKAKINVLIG

[12] = target: T5, Microphthalmia-associated transcription factor (Homo sapiens, UniProt O75030); assay: TRPM1 promoter luciferase signal decrease, dose response, MITF inhibitor project, cell-based, SK-MEL-5, cherry-picked, set 3 (AID 493073); assay type: functional
T5 sequence (O75030 whole entry): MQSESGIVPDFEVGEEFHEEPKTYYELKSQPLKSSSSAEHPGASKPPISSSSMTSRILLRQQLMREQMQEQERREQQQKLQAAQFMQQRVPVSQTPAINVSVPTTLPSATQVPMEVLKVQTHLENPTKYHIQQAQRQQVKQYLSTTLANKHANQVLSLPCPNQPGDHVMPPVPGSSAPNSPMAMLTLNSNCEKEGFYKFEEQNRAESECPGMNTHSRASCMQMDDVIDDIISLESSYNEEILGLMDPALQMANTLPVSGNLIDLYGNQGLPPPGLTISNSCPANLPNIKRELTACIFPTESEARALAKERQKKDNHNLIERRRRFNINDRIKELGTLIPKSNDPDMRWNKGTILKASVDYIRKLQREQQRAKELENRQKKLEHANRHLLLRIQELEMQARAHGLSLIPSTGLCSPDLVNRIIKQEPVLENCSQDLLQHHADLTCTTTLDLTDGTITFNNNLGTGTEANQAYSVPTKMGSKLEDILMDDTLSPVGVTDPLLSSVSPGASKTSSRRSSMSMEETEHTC

[13] = target: T6, Rac GTPase-activating protein 1 (Homo sapiens, UniProt Q9H0H5); assay: MgcRacGAP GTPase-activating activity inhibitors, confirmation, biochemical, ADP Hunter fluorescence, primary and confirmatory (AID 624330); assay type: functional
T6 sequence (Q9H0H5 whole entry): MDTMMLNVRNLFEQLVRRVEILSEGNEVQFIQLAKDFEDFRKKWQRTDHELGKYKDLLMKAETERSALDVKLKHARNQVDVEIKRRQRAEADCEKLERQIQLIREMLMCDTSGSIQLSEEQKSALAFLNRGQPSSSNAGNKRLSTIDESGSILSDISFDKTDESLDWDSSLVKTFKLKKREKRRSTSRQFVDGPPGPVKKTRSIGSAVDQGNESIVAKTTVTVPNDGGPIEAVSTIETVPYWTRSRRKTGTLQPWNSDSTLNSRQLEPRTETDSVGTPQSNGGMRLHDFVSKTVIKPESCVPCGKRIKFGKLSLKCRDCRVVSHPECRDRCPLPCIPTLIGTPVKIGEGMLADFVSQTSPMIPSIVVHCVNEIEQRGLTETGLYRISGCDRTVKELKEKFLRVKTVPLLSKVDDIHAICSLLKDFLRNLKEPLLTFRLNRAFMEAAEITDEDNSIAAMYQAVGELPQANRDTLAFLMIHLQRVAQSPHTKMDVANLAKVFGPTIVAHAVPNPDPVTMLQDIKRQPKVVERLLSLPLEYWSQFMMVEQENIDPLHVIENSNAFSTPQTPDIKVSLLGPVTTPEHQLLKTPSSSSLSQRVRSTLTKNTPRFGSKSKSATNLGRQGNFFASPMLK

[14] = target: T4, Endoribonuclease toxin MazF; assay: MazF toxin RNase activators, dose response, biochemical, fluorescence, single-stranded RNA substrate, uHTS hits (AID 588481); assay type: functional
Cytochrome P450 3A4 = Cytochrome P450 3A4 (Homo sapiens, UniProt P08684);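 also: CYP3A4 tested as one member of a cytochrome P450 panel screen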
H4 = assay: Luminescence Cell-Based Dose Response HTS to Identify Activators of 5'UTR Stem-Loop Driven Prion Protein mRNA Translation in H4 Neuroglioblastoma Cells. [Related pubchem assays: 1829 (Project Summary), 1814 (Primary HTS)]; assay type: functional; conditions: Homo sapiens
[15] = Luminescence Cell-Based Dose Confirmation HTS to Identify Activators of 5'UTR Stem-Loop Driven Alpha-Synuclein mRNA Translation in H4 Neuroglioblastoma Cells. [Related pubchem assays: 1829 (Project Summary), 1814 (Primary HTS)]; assay type: functional
Beta-galactosidase = Beta-galactosidase (Escherichia coli, UniProt Q8VNN2); assay: PubChem AID 485352; assay type: functional
Chain of Beta-galactosidase (Q8VNN2 whole entry): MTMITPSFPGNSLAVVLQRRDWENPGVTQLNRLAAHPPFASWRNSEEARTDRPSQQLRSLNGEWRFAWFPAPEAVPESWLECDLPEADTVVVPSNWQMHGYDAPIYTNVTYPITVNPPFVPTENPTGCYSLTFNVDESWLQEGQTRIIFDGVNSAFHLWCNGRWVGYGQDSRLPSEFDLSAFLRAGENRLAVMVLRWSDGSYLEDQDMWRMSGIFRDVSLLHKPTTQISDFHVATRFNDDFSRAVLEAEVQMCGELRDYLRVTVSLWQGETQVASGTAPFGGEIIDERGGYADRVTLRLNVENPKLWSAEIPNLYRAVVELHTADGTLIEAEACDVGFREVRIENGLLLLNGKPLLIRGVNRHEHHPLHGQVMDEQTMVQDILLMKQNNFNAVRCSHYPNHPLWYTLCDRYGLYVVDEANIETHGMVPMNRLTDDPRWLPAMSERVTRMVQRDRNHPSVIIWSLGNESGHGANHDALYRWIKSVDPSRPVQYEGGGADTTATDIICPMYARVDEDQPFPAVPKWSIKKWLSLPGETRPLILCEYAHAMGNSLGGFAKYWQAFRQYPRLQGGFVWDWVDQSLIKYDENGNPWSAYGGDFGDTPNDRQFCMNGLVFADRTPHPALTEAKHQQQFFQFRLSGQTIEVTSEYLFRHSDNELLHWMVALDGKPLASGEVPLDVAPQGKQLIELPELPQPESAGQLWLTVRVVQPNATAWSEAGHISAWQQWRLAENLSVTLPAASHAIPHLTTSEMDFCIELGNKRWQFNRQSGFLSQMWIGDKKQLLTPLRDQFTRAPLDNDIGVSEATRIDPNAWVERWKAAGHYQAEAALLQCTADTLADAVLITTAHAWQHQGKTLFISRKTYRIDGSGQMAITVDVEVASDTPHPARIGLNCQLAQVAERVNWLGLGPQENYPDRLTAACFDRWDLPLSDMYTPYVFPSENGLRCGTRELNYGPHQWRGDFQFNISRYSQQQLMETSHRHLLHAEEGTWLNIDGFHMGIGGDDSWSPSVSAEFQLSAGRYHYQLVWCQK

[16] = target: T7, Type-1 angiotensin II receptor (Homo sapiens, UniProt P30556); assay: AT1 receptor antagonists, dose response, selectivity assay for APJ receptor antagonist project, cell-based, uHTS hits (AID 463214); assay type: functional;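 also: antagonist potency against angiotensin II stimulated AT1 response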
T7 sequence (P30556 whole entry): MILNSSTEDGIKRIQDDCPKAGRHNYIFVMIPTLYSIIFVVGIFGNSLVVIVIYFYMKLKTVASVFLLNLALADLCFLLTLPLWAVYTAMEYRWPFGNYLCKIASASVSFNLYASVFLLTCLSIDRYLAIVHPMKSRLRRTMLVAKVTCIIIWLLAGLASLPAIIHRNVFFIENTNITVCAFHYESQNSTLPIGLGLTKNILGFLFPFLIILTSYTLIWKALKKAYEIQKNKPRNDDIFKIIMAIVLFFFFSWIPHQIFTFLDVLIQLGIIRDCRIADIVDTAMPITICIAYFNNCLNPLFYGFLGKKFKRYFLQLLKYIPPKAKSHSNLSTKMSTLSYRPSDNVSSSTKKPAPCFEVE

[17] = target: T8, Carboxy-terminal domain RNA polymerase II polypeptide A small phosphatase 1 (Homo sapiens, UniProt Q9GZU7); assay: inhibitors of CTDSP1, concentration-response testing, biochemical assay, absorbance-based, actives from ultra-high-throughput screening (AID 540297); assay type: functional
T8 sequence (Q9GZU7 whole entry): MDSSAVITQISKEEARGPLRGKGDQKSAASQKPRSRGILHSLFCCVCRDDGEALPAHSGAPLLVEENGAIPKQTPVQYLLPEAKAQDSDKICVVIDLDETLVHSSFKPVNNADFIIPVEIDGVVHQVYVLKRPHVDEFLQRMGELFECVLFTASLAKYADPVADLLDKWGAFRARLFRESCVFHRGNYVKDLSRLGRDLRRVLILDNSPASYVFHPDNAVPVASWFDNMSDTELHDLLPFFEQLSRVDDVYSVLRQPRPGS

## O=C(O)c1cn(C2CC2)c2cc(N3CCN(S(=O)(=O)c4ccc5c(c4)OCCO5)CC3)c(F)cc2c1=O
[1]
  IC50: 2.89 µM (active)

## CC(=O)Nc1cc[n+](CC(=O)c2cccc([N+](=O)[O-])c2)cc1
Vero [2]
  IC50: 6.55 µM (active)

## O=C(CSc1ncnc2c1oc1ccccc12)Nc1cccc(C(F)(F)F)c1
[3]
  EC50: > 79.4 µM (inactive)
[4]
  EC50: 23 µM (not active)
[5]
  EC50: > 79.4 µM (not active)

## Cc1nc2ccccc2c(=O)n1CCCO
Escherichia coli
  AC50: 27.2 µM (active)

## CC(=O)Nc1ccc(Nc2cc(C)c3ccccc3n2)cc1
[6]
  IC50: 11.2 µM (active)

## O=C(COC(=O)c1ccc([N+](=O)[O-])s1)NC(c1ccccc1)c1ccccc1
[7]
  EC50: 32.8 µM (inactive)

## COc1cc(S(=O)(=O)Nc2cc(C)cc(C)c2)ccc1F
Escherichia coli
  AC50: 64.9 µM (active)

## CC(=O)/C=C1/C(=O)Nc2ccccc21
Vero [2]
  IC50: > 25 µM (active)
Vero [8]
  CC50: 21.9 µM (active)

## CCOC(=O)CSC1=NC(=O)/C(=C\c2ccc(OC(C)=O)cc2)S1
[9]
  AC50: 0.216 µM (active)
[10]
  EC50: 10.4 µM (active)
[11]
  EC50: > 99 µM (inactive)
[12]
  AC50: 5.12 µM (active)
[13]
  IC50: 35.2 µM (active)
[14]
  EC50: > 99 µM (inactive)
Cytochrome P450 3A4
  AC50: 14.1 µM (inconclusive)
H4
  EC50: 10.5 µM (active)
[15]
  EC50: 8.97 µM (active)

## O=C(CNc1cccc(Cl)c1)c1ccc(Cl)cc1
Beta-galactosidase
  EC50: > 40 µM (inactive)
[16]
  IC50: 5.07 µM (active)

## O=C(C[N+]1(CC#Cc2ccccc2)CCOCC1)c1ccc(Cl)cc1
Beta-galactosidase
  EC50: > 40 µM (inactive)
[16]
  IC50: 39.4 µM (not active)

## CC(C)COC(=O)CNc1nnc(S)nc1O
[3]
  EC50: 2.86 µM (active)
[4]
  EC50: 3.42 µM (active)
[5]
  EC50: 37.9 µM (not active)

## CC(=O)Nc1ccc(CCNC(=O)c2ccc3ccccc3c2O)cc1
Vero [2]
  IC50: > 25 µM (active)

## Cc1ccc(/N=C2\C(=O)Nc3ccccc32)cc1
Beta-galactosidase
  EC50: > 40 µM (inactive)
[16]
  IC50: > 40 µM (not active)

## COc1ccc(CC(=O)NNC(=O)COc2ccc3ccccc3c2)cc1
[3]
  EC50: 2 µM (active)
[17]
  IC50: 9.26 µM (active)
[4]
  EC50: 1.93 µM (active)
[5]
  EC50: 3.65 µM (active)

## COc1ccc(N=C2C(=O)Nc3ccc(C)c(Br)c32)cc1
Beta-galactosidase
  EC50: > 40 µM (inactive)
[16]
  IC50: 3.94 µM (active)

## COc1cc(Nc2ccc(C(=O)O)cc2[N+](=O)[O-])cc(OC)c1
[7]
  EC50: > 104 µM (inactive)

## Cc1cc2ncn(CCOc3ccccc3)c2cc1C
[10]
  EC50: 39 µM (active)
Escherichia coli
  AC50: 41.4 µM (active)
H4
  EC50: 38.8 µM (active)
[15]
  EC50: 19.4 µM (active)

## CC(C)(C)c1ccc(C(=O)n2cnc3ccccc32)cc1
Escherichia coli
  AC50: 33.1 µM (active)
